Laboratory results as given in ChEMBL document CHEMBL2073815, “Induction of hepatic phase II drug-metabolizing enzymes by 1,7-phenanthroline in rats is accompanied by induction of MRP3” (Drug Metab Dispos, 2003).

Columns and labels:
Assay type in all cases: functional, organism-based
[1] = biological target: T1, ATP-binding cassette sub-family C member 3 (Rattus norvegicus, UniProt O88563); test: TP_TRANSPORTER: quantitative PCR in vivo, […] of male Sprague-Dawley rat
[2] = biological target: T2, Solute carrier organic anion transporter family member 1A4 (Rattus norvegicus, UniProt O35913); test: (§1) TP_TRANSPORTER: quantitative PCR in vivo, liver of male Sprague-Dawley rat
T2 sequence (O35913 whole entry): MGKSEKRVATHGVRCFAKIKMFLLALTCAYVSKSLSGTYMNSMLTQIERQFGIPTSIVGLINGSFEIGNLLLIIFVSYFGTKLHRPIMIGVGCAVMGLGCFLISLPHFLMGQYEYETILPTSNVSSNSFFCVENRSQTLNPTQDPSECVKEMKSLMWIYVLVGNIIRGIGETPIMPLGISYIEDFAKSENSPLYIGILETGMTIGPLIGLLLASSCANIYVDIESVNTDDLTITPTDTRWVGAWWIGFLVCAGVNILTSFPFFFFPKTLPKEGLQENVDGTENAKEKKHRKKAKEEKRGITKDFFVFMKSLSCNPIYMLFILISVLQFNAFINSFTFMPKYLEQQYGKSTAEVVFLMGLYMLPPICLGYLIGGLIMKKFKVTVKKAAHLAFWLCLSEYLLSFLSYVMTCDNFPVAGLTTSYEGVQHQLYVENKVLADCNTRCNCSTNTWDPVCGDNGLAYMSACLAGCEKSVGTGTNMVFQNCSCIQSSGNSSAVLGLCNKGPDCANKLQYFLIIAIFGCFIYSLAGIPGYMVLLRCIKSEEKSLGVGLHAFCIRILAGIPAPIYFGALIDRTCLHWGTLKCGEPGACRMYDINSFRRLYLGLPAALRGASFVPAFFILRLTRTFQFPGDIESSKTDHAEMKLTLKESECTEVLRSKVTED

[3] = biological target: T1, ATP-binding cassette sub-family C member 3; test: as §1

Measured: Activity

T1 sequence (O88563 whole entry): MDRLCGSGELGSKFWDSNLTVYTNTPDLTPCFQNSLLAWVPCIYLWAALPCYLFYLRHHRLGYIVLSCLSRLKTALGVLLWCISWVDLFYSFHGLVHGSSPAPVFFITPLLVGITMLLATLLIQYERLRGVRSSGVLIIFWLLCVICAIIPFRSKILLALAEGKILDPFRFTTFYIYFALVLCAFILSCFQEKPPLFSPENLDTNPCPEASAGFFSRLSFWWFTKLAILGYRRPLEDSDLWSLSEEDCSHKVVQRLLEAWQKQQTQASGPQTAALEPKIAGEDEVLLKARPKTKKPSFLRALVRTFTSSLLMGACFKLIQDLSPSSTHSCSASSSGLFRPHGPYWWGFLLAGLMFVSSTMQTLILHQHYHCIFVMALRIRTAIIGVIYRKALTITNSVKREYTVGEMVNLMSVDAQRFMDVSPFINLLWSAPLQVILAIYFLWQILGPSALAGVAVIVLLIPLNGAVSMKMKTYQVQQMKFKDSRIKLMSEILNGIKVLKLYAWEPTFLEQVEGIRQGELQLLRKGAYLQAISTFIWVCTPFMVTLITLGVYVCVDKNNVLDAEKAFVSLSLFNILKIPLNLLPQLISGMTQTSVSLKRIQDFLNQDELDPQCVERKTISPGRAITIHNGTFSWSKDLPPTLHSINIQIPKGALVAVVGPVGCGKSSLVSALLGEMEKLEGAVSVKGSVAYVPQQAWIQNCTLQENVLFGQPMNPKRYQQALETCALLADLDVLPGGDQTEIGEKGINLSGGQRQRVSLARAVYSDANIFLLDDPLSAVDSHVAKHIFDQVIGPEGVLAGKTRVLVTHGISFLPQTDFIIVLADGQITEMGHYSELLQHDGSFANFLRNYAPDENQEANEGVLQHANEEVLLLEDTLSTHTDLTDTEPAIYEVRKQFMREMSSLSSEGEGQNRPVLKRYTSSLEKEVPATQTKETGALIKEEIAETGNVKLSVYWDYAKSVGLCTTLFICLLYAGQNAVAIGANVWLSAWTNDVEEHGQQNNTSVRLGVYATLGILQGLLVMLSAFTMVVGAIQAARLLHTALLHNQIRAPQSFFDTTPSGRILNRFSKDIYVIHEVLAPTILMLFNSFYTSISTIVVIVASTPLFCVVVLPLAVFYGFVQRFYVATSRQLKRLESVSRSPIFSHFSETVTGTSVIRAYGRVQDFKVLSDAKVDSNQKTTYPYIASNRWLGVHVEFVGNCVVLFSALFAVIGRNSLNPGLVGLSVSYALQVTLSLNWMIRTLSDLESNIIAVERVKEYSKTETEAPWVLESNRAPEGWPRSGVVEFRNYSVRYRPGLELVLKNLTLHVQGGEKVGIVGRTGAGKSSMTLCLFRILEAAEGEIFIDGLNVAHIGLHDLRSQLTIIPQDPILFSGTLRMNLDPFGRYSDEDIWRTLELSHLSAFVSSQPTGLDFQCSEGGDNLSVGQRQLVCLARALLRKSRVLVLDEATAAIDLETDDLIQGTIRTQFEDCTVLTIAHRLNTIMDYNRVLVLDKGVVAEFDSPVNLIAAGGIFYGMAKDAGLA

c1cnc2c(c1)ccc1ncccc12
inducer []: all assays above
